Data published in patent US9540664B2, “Systems and methods for improving ethanol yield” (POET Research, Inc, priority 2011, dated 2017).
Where two headings read alike, the source gives them in different places.

Columns and labels:
[1] = tested on: yeast
Method: The entire experiment was conducted in duplicate.
In this experiment, corn that was ground using a hammer mill to >90% fines was obtained from a nearby biorefinery. […] The slurry (˜70 mL) was prepared by weighing out the appropriate amount of corn and water into each individual reactor. Lactoside247™ was added at 2.5 ppm to prevent any lactic acid bacterial contamination. Urea was added ˜0.24 g/L (4 mM) for a nitrogen source.
A raw starch hydrolyzing enzyme blend was added at 0.2 g/L. Everything was added to the reactor in such a way that the final volume in the reactor was 70 mL. […] (88° F.). […] (82° F.). Samples were withdrawn at 0, 24, 48, 72, and 88 hr of fermentation and analyzed for sugars, glycerol, organic acids and ethanol using HPLC.
About 4 mL of sample was withdrawn at each time point. These samples were centrifuged at 4500 rpm for 2 min. The supernatant was then filtered through a 0.2 μpore size filter into HPLC vials. […] An aliquot (5 μL) of the sample was injected by the auto-injector onto a reverse phase column (HPX-87H from BioRad Laboratories) maintained at 50° C. Aqueous sulfuric acid at 0.005M was used as the mobile phase (eluent). […] The components (sugars, organic acids, and ethanol) were identified and quantified using Waters Empower software.

[2] = tested on: yeast; conditions: 20% w/v sucrose
Method: For this example, a laboratory media with sucrose was used. The media used was Yeast extract-Peptone (YP) broth supplemented with 20% w/v (200 g/L) sucrose. An acetic acid dose response (at 500, 1000, 1500, 2000, 2500, and 3000 ppm) was conducted. Control with no added acetic acid was also included. The fermenters were pH adjusted to 4.5 and after yeast inoculation the fermentations were carried out for 30 hours at 32° C. After 30 h, samples were withdrawn and analyzed for sugars, organic acids, and ethanol. Samples were also withdrawn at 24 h and yeast growth was monitored by optical density measurement at 600 nm.

[3] = tested on: yeast; conditions: 24 hours at 88° F.
Method: The samples were serially diluted and appropriate dilutions were plated on to Yeast extract-Malt extract (YM) agar plates. The plates were incubated at 30° C. and the colonies formed were counted after 48 h. The results were expressed as colony forming units (CFU) per mL.
Samples tested include a control with no acetic acid addition, and samples treated at 1200 ppm and 2400 ppm respectively.

[4] = tested on: yeast; conditions: 320 gal per 720,000 gal or 250 gal per 550,000 gal fermentor, added 1.5 hours into fill, 36% dry solids
Method: In commercial ethanol production facilities, acetic acid is thought to be inhibitory to yeast growth and fermentation. […] The dosage of acetic acid used is 320 gal per 720,000 gal fermentor or 250 gal per 550,000 gal fermentor and the acetic acid is added at 1.5 hours into fill of the fermentor (which would be about 1 hour after yeast inoculation from the yeast conditioning tank). […] A few batches were conducted with added acetic acid (primed) and a few batches were operated normally without additional acetic acid.

Compound: CC(=O)O [acetic acid]
- effect on ethanol titers ([1]; 0.12% to 0.24% (1200-2400 ppm) acetic acid, initial pH 4.7 or 5.2): increased ethanol titers
- effect on ethanol production ([1]; highest concentration tested 0.37% w/v, especially at pH 4.2): inhibitory effect
- effect on ethanol production ([1]; initial pH 4.2): No major benefits
- maximum reduction in glycerol ([1]; initial pH 4.7, initial acetic acid 0.24% w/v): over 50%
- highest ethanol titer ([1]; initial pH 4.7, initial acetic acid 0.24% w/v, 36% dry solids, 88 hr fermentation): 20.5 % v/v
- effect on ethanol conversion efficiency ([2]; above 2500 ppm acetic acid, pH 4.5): inhibitory to fermentation
- effect on ethanol conversion efficiency ([2]; initial acetic acid between 2000 and 2500 ppm, pH 4.5, 30 hours at 32° C): stimulatory effect
- reduction in cell counts ([3]; initial acetic acid 1200 ppm): About 24%
- reduction in cell counts ([3]; initial acetic acid 2400 ppm): ~32%
- ethanol production, primed vs no priming [4]: increased ethanol production
- glycerol production, primed vs no priming [4]: decreases glycerol production significantly
